Experiments:
Assay type in all cases: cell-based, human
LNCaP Prostate Cell Line = assay: Dual label UROC28/Bcl-2 flow cytometry after SPB treatment
Description: (§1) Cells were grown to 70-80% confluence at 37° C. and 5% CO2 in T-75 tissue culture plastic flasks. SPB stock solution was added to final concentrations of 0.5, 5.0, 10.0, and 25.0 mM in appropriate fresh media to the cell cultures. Cells were incubated at 37° C. and 5% CO2 for 72 hours. Attached cells were then harvested using a solution of 0.05% trypsin and 0.53 mM EDTA (Invitrogen Corp.). Attached cells were then pooled with any the detached cells and washed with PBS pH 7.2. Cell numbers and percent viability were determined using Trypan blue dye exclusion and a hemacytometer. At the time of their use in an experiment the viability was usually about 85% for untreated cells and a range of about 15-70% for treated cells, with the lower viabilities found at higher SPB concentrations (Thompson C, 1995; Cory et al., 1998; van Engeland et al., 1996).
(§2) UC28(C) is 2.14 mg/ml rabbit polyclonal aliquot directed against the inventors' UC28 patented biomarker developed by UCor R&D gene discovery program. The Antibody was produced against a twenty amino acid (AA) synthetic peptide from the predicted AA sequence (AA 21-37) UCor, Inc. 840 Research Parkway Oklahoma City, Okla. 73104.
(§3) Goat Anti-Rabbit CY5 polyclonal Fluorchrome was used as the secondary conjugate for UC28 C rabbit polyclonal antibody and a background control for UC28 C polyclonal. Vendor is Jackson ImmunoResearch Laboratories, Inc. 872 West Baltimore Pike, P.O. Box 9 West Grove, Pa. 19390.
(§4) Bc12 IgG1 kappa-FITC isomer 1 is a purified monoclonal mouse specific for Bc1-2 protein. Vendor is Dalco Corporation 6392 Via Real, Carpinteria, Calif. 93013 USA.
(§5) MsIgG1 kappa-FITC isomer 1 is a purified isotype specific control for Bc1-2 monoclonal antibody. Vendor is Dako Corporation 6392 Via Real, Carpinteria, Calif. 93013 USA.
(§6) Cytofix/Cytoperm™ ICit enables fixation and permeabilization of cells prior to staining with fluorochrome-conjugated antibodies. Vendor is BD-PharMingen, 10975 Torreyana Road, San Diego, Calif. 92121-1106.
(§7) A Coulter Elite engineered with a triple laser system was used to analyze all samples. Coulter control beads were used to align lasers for the dual label testing of cell samples. Laser alignment was required for both the Argon (488 nm line) laser and HeNe (633 nm line) laser. These alignments were performed prior to all measurements with the Argon laser (488 nm line) using fluorophores for FITC, RPE, PI and the HeNe laser (633 nm line) for the Cy5 fluorophores being used for the experiments described below. The histographs, voltage settings, gates, color compensation, and pressures were established prior to all sample processing.
(a) Tissue culture cells (MLC-SV40, LNCaP and C 4-2B) were aliquoted at concentration of 1×10^6 per teach 12×75 mm polystyrene tube. […]

[1] = system: C4-2B Metastatic Prostate Cell Line; assay: UROC28/Bcl-2 label flow cytometry after SPB treatment; settings: for Total Bcl-2 / Total UC2BC: section UROC28/Bcl-2
Description: as §1, §2, §3, §4, §5, §6, §7
(a) Tissue culture cells (MLC-SV40, LNCaP and C 4-2B) were aliquoted at concentration of 1×10^6 per teach 12×75 mm polystyrene tube. Label tubes as follows: • (i) No Antibody • (ii) Secondary GAR-CY5 polyclonal=(control for UC28 CIDGARCY5 polyclonal) vs MsIgG1-RPE (control for FAS-RPE monoclonal) • (iii) UC28 C-IDGARCY5 polyclonal vs FAS (CD45)—RPE monoclonal • (iv) SecondaryGAR-CY5 polyclonal=(control for UC28 C-IDGARCY5 polyclonal) vs MsIgG1-FITC (control for Bc12-FITC monoclonal) • (v) UC28 C-IDGARCY5 polyclonal vs Bc12-FITC monoclonal • (vi) UC28 C-IDGARCY5 Polyclonal=(single label for checking instrument after setting Coulter Elite flow cytometer for dual analysis using the three different fluorchromes.) • (vii) FAS ([…])—RPE monoclonal=(single label for checking instrument after setting Coulter Elite flow cytometer for dual analysis using the three different fluorchromes.) • (viii) Bc12-FITC monoclonal=(single label for checking instrument after setting Coulter Elite flow cytometer for dual analysis using the three different fluorchromes.)
(c) A volume of 100 μl of UC28 C rabbit polyclonal unconjugated antibody was added to the appropriately labeled tubes. All other tubes received 100 μl PBS (pH7.3) and all tubes were incubated at room temp in the dark for 1 hour. […]

C4-2B Prostate Cell Line = assay: Dual label UC28 C/AnnexinV flow cytometry after SPB treatment; settings: for Total AnnexV / Total UC28C: 72 hours, UC28-GAR-CY5/AnnexV-FITC
Description: as §1
VO1 Apoptosis Detection Kit contains: (1) Fluorocein-isothiocyante (FITC) conjugated AnnexinV [AnnexinV01] 1 ml (2) Propidium Iodide [Annex-Pi] 2.0 ml (3) 4× Binding Buffer [Annex-B] 20.0 ml. Vendor is CalTag Laboratories, Inc., 1849 Bayshore Boulevard #200 Burlingame, Calif. 94010.
as §2, §3
MsIgG-FITC mouse conjugated-FITC was used for background control for AnnexinV01. Vendor is Becicman Coulter, Inc. Diagnostic Division, 11800 SW 147th Ave. M/S 42-003, P.O. Box 169015, Miami, Floridia 33116-9015.
as §7, with “processing. […]” for “processing.”
UC28 and Annexin V were co-labeled in the three cell lines to assess the induction of UC28 by SPB and its correlation to the induction of apoptosis. […] It may be noted that in previously published experiments, AnnexinV and PI were run in combination with several prostate cancer cell lines, one of which was LNCaP, but not with C4-2B or MLC-SV40. It was determined that they produced similar dose-response kinetics when exposed to 0.5-25 mM of SPB for 72 hours (Ng et al., 1989). That is, as the dose of SPB increased, so did the membrane perturbation events measured by these two methods.

Compound: O=C([O-])CCCc1ccccc1.[Na+] [SPB, 4-Phenylbutyric Acid, Sodium Salt]
- Total Bcl-2 (LNCaP Prostate Cell Line; 5.0 mM SPB): 23.8%
- Total UC2BC (LNCaP Prostate Cell Line; 5.0 mM SPB): 87.7%
- Total Bcl-2 (LNCaP Prostate Cell Line; 10 mM SPB): 15.6%
- Total UC2BC (LNCaP Prostate Cell Line; 10 mM SPB): 83.0%
- Total Bcl-2 ([1]; 5.0 mM SPB): 5.4%
- Total UC2BC ([1]; 5.0 mM SPB): 96.0%
- Total Bcl-2 ([1]; 10 mM SPB): 0.3%
- Total UC2BC ([1]; 10 mM SPB): 93.9%
- Bc1-2 protein expression ([1]; SPB, summary of Table 7): markedly depressed
- UC28 expression ([1]; SPB, summary of Table 7): significantly up regulated
- Total AnnexV (C4-2B Prostate Cell Line; 0.5 mM SPB): 41.1%
- Total UC28C (C4-2B Prostate Cell Line; 0.5 mM SPB): 29.8%
- Total AnnexV (C4-2B Prostate Cell Line; 5.0 mM SPB): 94.0%
- Total UC28C (C4-2B Prostate Cell Line; 5.0 mM SPB): 81.8%
- Total AnnexV (C4-2B Prostate Cell Line; 10 mM SPB): 80.0%
- Total UC28C (C4-2B Prostate Cell Line; 10 mM SPB): 88.0%
- Total AnnexV (C4-2B Prostate Cell Line; 25 mM SPB): 82.3%
- Total UC28C (C4-2B Prostate Cell Line; 25 mM SPB): 96.5%
- UC28 up regulation (C4-2B Prostate Cell Line; SPB, summary of Table 5): up regulated
- induction of apoptosis (C4-2B Prostate Cell Line; SPB, summary of Table 5): induced

— patent US20120213789A1, “New Molecular Target for Treatment of Cancer” (priority 2001, published 2012)
